Assay results taken from patent EP0340307A1, “COMPOSITION OF POLYMER DIFFUSION MATRIX FOR TRANSDERMALLY INTRODUCING PHARMACEUTICAL SUBSTANCES” (priority 1987, dated 1989).
Where two headings read alike, the source gives them in different places.

Assay: In vitro transdermal delivery of the drug from the diffusion matrix through human cadaver skin epidermis into Ringer solution
Description: Es wurde von uns eine Diffusionsmatrix "in vitro" untersucht, die auf der Grundlage der erfindungsgemäßen Zusammensetzung hergestellt wurde.
So wird, beispielsweise, auf eine Adhäsionsschicht einer Diffusionsmatrix mit runder Form und einem Radius von 1 cm (Fläche 3,14 cm²), die auf der Grundlage einer Zusammensetzung hergestellt wird, die 26,7 g Propranolol, 40 g Polyäthylenglykol mit einer Molekularmasse von 400 und 100 g Polyvinylpyrrolidon enthält, ein Probestück aus der Epidermis der Leichenhaut eines Menschen (mit der Außenoberfläche der Epidermis an die Diffusionsmatrix) aufgeklebt. Das Laminat der Diffusionsmatrix mit der Hautepidermis taucht man in die in einem Magnetrührer zu vermischende Ringer-Lösung ein. In den vorgegebenen Zeitabständen nimmt man aus der Lösung Proben ab, in denen man den Gehalt an Propranolol mit Hilfe der Spektrofluorometrie ermittelt, wobei die vorher aufgebauten Eichkurven genutzt werden.

| SMILES | Geschwindigkeit des transdermalen Eintritts des Arzneistoffes aus der Matrix (drug contained in the named matrix, through cadaver skin) | Geschwindigkeit der transdermalen Zuführung aus einer Matrix, die einen Füllstoff enthält | Geschwindigkeit des transdermalen Eintritts des Arzneistoffes aus der Matrix |
| --- | --- | --- | --- |
| O=[N+]([O-])OCC(CO[N+](=O)[O-])O[N+](=O)[O-] [Nitroglyzerin] | 39 µg/cm².h | – | – |
| CC(C)NCC(O)COc1cccc2ccccc12 (stereo not drawn) [Propranolol] | – | 55 µg/cm².h | 47 µg/cm².h |
